Data reported in patent US20120152149A1, “USE OF 1,3-DIOLS AS BIOCIDES” (BASF SE, priority 2009, published 2012).
Like-named read-outs stand apart in the source and are kept apart here.

Columns and labels:
Assay type in all cases: cell-based
[1] = system: P. vulgaris NCIMB 4175; test: Microstatic activity, MIC in tryptone soy broth; settings: Proteus vulgaris, NCIMB4175, 30° C., 48 hours
Experimental: (§1) For this, in each case a 40 percent strength by weight solution of a diol in propylene glycol was prepared at 60° C. This solution was diluted with a double-strength soy solution (double-strength tryptone soy broth) as nutrient medium in the volume ratio 1:1. Further dilution with soy solution produced solutions with the following concentrations: 400 000 ppm (40%), 200 000 ppm (20%), 100 000 ppm (10%), 50 000 ppm (5%), 25 000 ppm (2.5%), 12 500 ppm (1.25%), 6250 ppm (0.625%), 3125 ppm (0.3125%). Pure soy solution was used as negative control. The positive control used was a solution of 5 ml of soy solution which has been treated with 0.1 ml of the respective microorganism. The test solutions consisted of 5 ml of the above-described soy solutions of the diols in the particular concentration which have been mixed with 0.1 ml of the respective microorganism. The samples and controls were incubated in the case of the bacteria at 30° C. for 48 hours, and in the case of fungi over 5 days at 25° C. In each case, the MIC (Minimum Inhibitory Concentration) value was determined. This value indicates the minimum concentration above which the growth of the microorganisms was visibly hindered compared to the corresponding sample without addition of the diol. […] For example, this was evident from the occurrence of clouding or visible growth of the microorganism. […] The MIC value stated is a range between the next higher concentration of a positive test and the same and/or lower concentration of a first negative test.

[2] = system: E. coli NCIMB 8545; test: Microstatic activity, MIC in tryptone soy broth; settings: Escherichia coli, NCIMB8545, 30° C., 48 hours
Experimental: as §1

[3] = system: S. aureus NCIMB 9578; test: Microstatic activity, MIC in tryptone soy broth; settings: Staphylococcus aureus, NCIMB9578, 30° C., 48 hours
Experimental: as §1

[4] = system: P. aeruginosa NCIMB 10421; test: Microstatic activity, MIC in tryptone soy broth; settings: Pseudomonas aeruginosa, NCIMB10421, 30° C., 48 hours
Experimental: as §1

[5] = system: S. aureus ATCC 6538; test: Preservation stress test, example formulation 2 (roll-on deodorant formulation); settings: 1% active substance
Experimental: (§2) Preservation stress tests (PSTs) were carried out in order to determine the preserving activity of the diols. In the preservation stress test, this is simulated through artificial loadings with microorganisms. These can either be inoculated as mixed population or individually in mixtures independent of one another. The inoculated product samples are incubated under defined conditions and, after defined times, samples are taken in order to determine the germ loading. In the case of adequate preservation, the number of microorganisms should, depending on the type, either decrease or remain constant in order to satisfy the requirements specified, e.g. in Ph. Eur. 6.0. To investigate the preserving effect of the diols, application-typical amounts of the diols were incorporated into example formulations. […] [table] These example formulations were used to prepare various mixtures which each comprised 1% active substance or comprised water instead of the active substance as placebo mixtures. These mixtures were in each case inoculated with the test germs such that a germ loading of 10^5-10^6 CFU/g was present in the test mixture. The bacteria were either used individually for the inoculation or as a mixed culture. To determine the starting germ count, immediately after inoculation, an aliquot was taken, diluted in dilution medium (phosphate buffer, 0.07 molar pH 7.4 (+/−0.2), with 1% Tween 80+0.3% soya lecithin), and the surviving germ count was determined in the dilution stages 10^−1 to 10^−3. The inoculated product samples then incubated for a total of 28 d at 20-25° C. After 2 d, 7 d, 14 d and after 28 d, aliquots were taken and diluted in dilution medium (phosphate buffer, 0.07 molar pH 7.4 (+/−0.2), with 1% Tween 80+0.3% soya lecithin). The surviving germ counts were determined in the dilution stages 10^−1 to 10^−4. The reference point taken for determining the reduction in germ count was the respective initial value of the sample. The results were given as logarithmic reductions.

[6] = system: A. niger ATCC 16404; test: as above; settings: 1% active substance
Experimental: as §2

[7] = system: E. coli ATCC 10536; test: as above; settings: 1% active substance
Experimental: as §2

[8] = system: P. aeruginosa ATCC 15442; test: as above; settings: 1% active substance
Experimental: as §2

[9] = system: C. albicans ATCC 10231; test: as above; settings: 1% active substance
Experimental: as §2

[10] = system: series of tested microorganisms (bacteria and fungi); test: Microstatic activity, highest MIC from the series of tested microorganisms; settings: highest measured MIC from the series of tested microorganisms
Experimental: The following microorganisms were used;to test the biocidal effect against various bacteria and fungi: In each case, the MIC (Minimum Inhibitory Concentration) value was determined. This value indicates the minimum concentration above which the growth of the microorganisms was visibly hindered compared to the corresponding sample without addition of the diol. The MIC value stated is a range between the next higher concentration of a positive test and the same and/or lower concentration of a first negative test. In the last line of each of the tables below, a “maximum” value is listed. This value indicates the highest measured MIC value in each case from the series of tested microorganisms.

[11] = system: A. niger ATCC 16404; test: Preservation stress test, example formulation 1 (standard emulsion O/W); settings: 1% active substance
Experimental: as §2

[12] = system: C. albicans ATCC 10231; test: as above; settings: 1% active substance
Experimental: as §2

[13] = lower limit of MIC range, read-out: MIC value (ppm of diol), from
[14] = upper limit of MIC range, read-out: MIC value (ppm of diol), to
[15] = lower limit, read-out: Maximum MIC value (ppm of diol), from
[16] = upper limit, read-out: Maximum MIC value (ppm of diol), to

SMILES | MIC [1, 13] [mg/mL] | MIC [1, 14] [mg/mL] | MIC [2, 13] [mg/mL] | MIC [2, 14] [mg/mL] | MIC [3, 13] [mg/mL] | MIC [3, 14] [mg/mL] | MIC [4, 13] [mg/mL] | MIC [4, 14] [mg/mL] | Microbicidal activity given as logarithmic reduction in germ count ([5]; 48 h) | Microbicidal activity given as logarithmic reduction in germ count ([5]; 7 d) [log. Red.] | Microbicidal activity given as logarithmic reduction in germ count ([5]; 14 d) [log. Red.] | Microbicidal activity given as logarithmic reduction in germ count ([6]; 48 h) [log. Red.] | Microbicidal activity given as logarithmic reduction in germ count ([6]; 7 d) [log. Red.] | Microbicidal activity given as logarithmic reduction in germ count ([6]; 14 d) [log. Red.] | Microbicidal activity given as logarithmic reduction in germ count ([7]; 48 h) [log. Red.] | Microbicidal activity given as logarithmic reduction in germ count ([7]; 7 d) | Microbicidal activity given as logarithmic reduction in germ count ([7]; 14 d) [log. Red.] | Microbicidal activity given as logarithmic reduction in germ count ([8]; 48 h) [log. Red.] | Microbicidal activity given as logarithmic reduction in germ count ([8]; 7 d) [log. Red.] | Microbicidal activity given as logarithmic reduction in germ count ([8]; 14 d) [log. Red.] | further results
CCCC(O)CO (stereo not shown) [1,2-Pentanediol, 1,2-pentanediol, reference compound] | > 25 | ≤ 50 | > 25 | ≤ 50 | > 25 | ≤ 50 | > 12.5 | ≤ 25 | 1 log. Red. | 1 | 5 | 0 | 0 | 0 | 0 | 1 log. Red. | 1 | 0 | 3 | 5 | Microbicidal activity given as logarithmic reduction in germ count ([9]; 48 h): 0 log. Red.; Microbicidal activity given as logarithmic reduction in germ count ([9]; 7 d): 0 log. Red.; Microbicidal activity given as logarithmic reduction in germ count ([9]; 14 d): 0 log. Red.; MIC [10, 15]: > 25 mg/mL; MIC [10, 16]: ≤ 50 mg/mL; Microbicidal activity given as logarithmic reduction in germ count ([11]; 48 h): 0 log. Red.; Microbicidal activity given as logarithmic reduction in germ count ([11]; 7 d): 0 log. Red.; Microbicidal activity given as logarithmic reduction in germ count ([11]; 14 d): 0 log. Red.; Microbicidal activity given as logarithmic reduction in germ count ([12]; 48 h): 0 log. Red.; Microbicidal activity given as logarithmic reduction in germ count ([12]; 7 d): 0 log. Red.; Microbicidal activity given as logarithmic reduction in germ count ([12]; 14 d): 0 log. Red.
OCC1(CO)CC2CCC1C2 (stereo not shown) [2,2-DMNB, 2,2-dimethylolnorbornane] | > 6.25 | ≤ 12.5 | > 3.12 | ≤ 6.25 | > 12.5 | ≤ 25 | > 12.5 | ≤ 25 | ≧3 log. Red. | 5 | 5 | 0 | 0 | 0 | 2 | ≧3 log. Red. | 5 | 3 | 5 | 5 | Microbicidal activity given as logarithmic reduction in germ count ([5]; 28 d): 5 log. Red.; Microbicidal activity given as logarithmic reduction in germ count ([7]; 28 d): 5 log. Red.; Microbicidal activity given as logarithmic reduction in germ count ([8]; 28 d): 5 log. Red.; Microbicidal activity given as logarithmic reduction in germ count ([9]; 48 h): 0 log. Red.; Microbicidal activity given as logarithmic reduction in germ count ([9]; 7 d): ≧3 log. Red.; Microbicidal activity given as logarithmic reduction in germ count ([9]; 14 d): 0 log. Red.; MIC [10, 15]: > 50 mg/mL; MIC [10, 16]: ≤ 100 mg/mL; Microbicidal activity given as logarithmic reduction in germ count ([11]; 48 h): 0 log. Red.; Microbicidal activity given as logarithmic reduction in germ count ([11]; 7 d): 0 log. Red.; Microbicidal activity given as logarithmic reduction in germ count ([11]; 14 d): 0 log. Red.; Microbicidal activity given as logarithmic reduction in germ count ([11]; 28 d): 0 log. Red.; Microbicidal activity given as logarithmic reduction in germ count ([12]; 48 h): 1 log. Red.; Microbicidal activity given as logarithmic reduction in germ count ([12]; 7 d): ≧3 log. Red.; Microbicidal activity given as logarithmic reduction in germ count ([12]; 14 d): 5 log. Red.; Microbicidal activity given as logarithmic reduction in germ count ([12]; 28 d): 5 log. Red.
